{"source": "ChEMBL document CHEMBL6087446", "about": "“Hypoxia Activated Nitric Oxide Donor Compounds for the Prevention and Treatment of Myocardial Hypoxia-Induced Injury” (J Med Chem, 2025)", "key": {"[1]": {"assay": "Induction of NO release in rat H9c2 cells at 10 uM by Griess reagent assay relative to control", "format": "functional"}, "H9c2 [2]": {"test_system": "H9c2", "assay": "Induction of NO release in rat H9c2 cells under hypoxia condition by Griess reagent assay relative to control", "format": "functional, cell-based"}, "H9c2 [3]": {"test_system": "H9c2", "assay": "Prevention of hypoxia-induced decrease cell viability of rat H9c2 cells at 10 uM by CCK8 assay", "format": "functional, cell-based"}, "H9c2 [4]": {"test_system": "H9c2", "assay": "Prevention of hypoxia-induced decrease in ATP level in rat H9c2 cells at 10 uM […] (Rvb =- 19.6 nmol/mg)", "format": "ADME, cell-based", "settings": "h9c2, 10 µM"}, "H9c2 [5]": {"test_system": "H9c2", "assay": "Prevention of hypoxia-induced apoptosis in rat H9c2 cells assessed as decrease in late apoptosis and necrosis by measuring reduced red fluorescence at 10 uM incubated for 4 hrs by confocal microscopy with Annexin V-FITC and propidium iodide (PI) double staining analysis", "format": "functional, cell-based"}, "H9c2 [6]": {"test_system": "H9c2", "assay": "Prevention of hypoxia-induced apoptosis in rat H9c2 cells assessed as decrease in early apoptosis by measuring reduced green fluorescence at 10 uM incubated for 4 hrs by confocal microscopy with Annexin V-FITC and propidium iodide (PI) double staining analysis", "format": "functional, cell-based"}, "H9c2 [7]": {"test_system": "H9c2", "assay": "Prevention of hypoxia-induced ROS production in rat H9c2 cells at 1 uM measured after 4 hrs incubation by DCFH-DA method", "format": "functional, cell-based"}, "H9c2 [8]": {"test_system": "H9c2", "assay": "Prevention of hypoxia-induced TSP1 expression in rat H9c2 cells assessed as inhibition of TSP1 overexpression at 10 uM measured after 4 hrs incubation", "format": "functional, cell-based"}, "H9c2 [9]": {"test_system": "H9c2", "assay": "Prevention of hypoxia-induced TSC2-P expression in rat H9c2 cells assessed as inhibition of TSC2-P overexpression at 10 uM measured after 4 hrs incubation", "format": "functional, cell-based"}, "H9c2 [10]": {"test_system": "H9c2", "assay": "Prevention of hypoxia-induced mTORC1 expression in rat H9c2 cells assessed as inhibition of mTORC1 overexpression at 10 uM measured after 4 hrs incubation", "format": "functional, cell-based"}, "Mus musculus [11]": {"test_system": "Mus musculus", "assay": "Prevention of myocardial hypoxia injury in isoproterenol-induced male C57 mouse myocardial injury model assessed as antihypertrophic effect at 8 mg/kg, ip once daily for 3 consecutive days", "format": "functional, organism-based", "settings": "time 3.0 day"}, "Mus musculus [12]": {"test_system": "Mus musculus", "assay": "Prevention of myocardial hypoxia injury in isoproterenol-induced male C57 mouse myocardial injury model assessed as antihypertrophic effect at 16 mg/kg, ip once daily for 3 consecutive days", "format": "functional, organism-based", "settings": "time 3.0 day"}, "Mus musculus [13]": {"test_system": "Mus musculus", "assay": "Prevention of myocardial hypoxia injury in isoproterenol-induced male C57 mouse myocardial injury model assessed as increase in NO level in heart tissue at 16 mg/kg, ip once daily for 3 consecutive days", "format": "functional, organism-based", "settings": "time 3.0 day"}, "Mus musculus [14]": {"test_system": "Mus musculus", "assay": "Prevention of myocardial hypoxia injury in isoproterenol-induced male C57 mouse myocardial injury model assessed as pathological myocardial change by measuring improvement in disorganized cell arrangement at 8 to 16 mg/kg, ip once daily for 3 consecutive days by hematoxylin and eosin staining based analysis", "format": "functional, organism-based", "settings": "dose 8-16 mg/kg, time 3.0 day"}, "Mus musculus [15]": {"test_system": "Mus musculus", "assay": "Prevention of myocardial hypoxia injury in isoproterenol-induced male C57 mouse myocardial injury model assessed as pathological myocardial change by absence of infarction areas at 8 to 16 mg/kg, ip once daily for 3 consecutive days by hematoxylin and eosin staining based analysis", "format": "functional, organism-based", "settings": "dose 8-16 mg/kg, time 3.0 day"}, "Mus musculus [16]": {"test_system": "Mus musculus", "assay": "Prevention of myocardial hypoxia injury in isoproterenol-induced male C57 mouse myocardial injury model assessed as pathological myocardial change by clear vascular boundaries at 8 to 16 mg/kg, ip once daily for 3 consecutive days by hematoxylin and eosin staining based analysis", "format": "functional, organism-based", "settings": "dose 8-16 mg/kg, time 3.0 day"}, "Mus musculus [17]": {"test_system": "Mus musculus", "assay": "Prevention of myocardial hypoxia injury in isoproterenol-induced male C57 mouse myocardial injury model assessed as pathological myocardial change by heart sections at 8 to 16 mg/kg, ip once daily for 3 consecutive days by hematoxylin and eosin staining based analysis", "format": "functional, organism-based", "settings": "dose 8-16 mg/kg, time 3.0 day"}, "Mus musculus [18]": {"test_system": "Mus musculus", "assay": "Prevention of myocardial hypoxia injury in isoproterenol-induced male C57 mouse myocardial injury model assessed as prevention of bundle collagen fiber deposition at 8 to 16 mg/kg, ip once daily for 3 consecutive days by Masson staining based analysis", "format": "functional, organism-based", "settings": "dose 8-16 mg/kg, time 3.0 day"}, "Mus musculus [19]": {"test_system": "Mus musculus", "assay": "Prevention of myocardial hypoxia injury in isoproterenol-induced male C57 mouse myocardial injury model assessed as decrease in ACE expression at 8 to 16 mg/kg, ip once daily for 3 consecutive days by immunohistochemistry", "format": "functional, organism-based", "settings": "dose 8-16 mg/kg, time 3.0 day"}, "Mus musculus [20]": {"test_system": "Mus musculus", "assay": "Prevention of myocardial hypoxia injury in isoproterenol-induced male C57 mouse myocardial injury model assessed as reduction in creatine kinase (CK) at 8 to 16 mg/kg, ip once daily for 3 consecutive days by immunohistochemistry", "format": "functional, organism-based", "settings": "dose 8-16 mg/kg, time 3.0 day"}, "Mus musculus [21]": {"test_system": "Mus musculus", "assay": "Prevention of myocardial hypoxia injury in isoproterenol-induced male C57 mouse myocardial injury model assessed as reduction in creatine kinase-MB (CK-MB) at 8 to 16 mg/kg, ip once daily for 3 consecutive days by immunohistochemistry", "format": "functional, organism-based", "settings": "dose 8-16 mg/kg, time 3.0 day"}, "Mus musculus [22]": {"test_system": "Mus musculus", "assay": "Prevention of myocardial hypoxia injury in isoproterenol-induced male C57 mouse myocardial injury model assessed as reduction in creatine kinase (CK) at 5 mg/kg, ip once daily for 3 consecutive days by immunohistochemistry", "format": "functional, organism-based", "settings": "time 3.0 day"}, "Mus musculus [23]": {"test_system": "Mus musculus", "assay": "Prevention of myocardial hypoxia injury in isoproterenol-induced male C57 mouse myocardial injury model assessed as reduction in creatine kinase-MB (CK-MB) at 5 mg/kg, ip once daily for 3 consecutive days by immunohistochemistry", "format": "functional, organism-based", "settings": "time 3.0 day"}, "[24]": {"assay": "Half life in female Balb/c mouse at 8 mg/kg, ip measured up to 24 hrs by LC-MS/MS analysis", "format": "ADME, organism-based", "settings": "in vivo"}, "[25]": {"assay": "Tmax in female Balb/c mouse at 8 mg/kg, ip measured up to 24 hrs by LC-MS/MS analysis", "format": "ADME, organism-based", "settings": "in vivo"}, "[26]": {"assay": "Cmax in female Balb/c mouse at 8 mg/kg, ip measured up to 24 hrs by LC-MS/MS analysis", "format": "ADME, organism-based", "settings": "in vivo"}, "[27]": {"assay": "AUC (0 to infinity) in female Balb/c at 8 mg/kg, ip mouse measured up to 24 hrs by LC-MS/MS analysis", "format": "ADME, organism-based", "settings": "in vivo"}, "[28]": {"assay": "Toxicity in isoproterenol-induced male C57 mouse assessed as body weight change at 8 mg/kg, ip once daily for 3 consecutive days", "format": "organism-based", "settings": "in vivo, 72 h, time 3 day"}, "[29]": {"assay": "Toxicity in isoproterenol-induced male C57 mouse assessed as body weight change at 5 mg/kg, ip once daily for 3 consecutive days", "format": "organism-based", "settings": "in vivo, 72 h, time 3 day"}, "Mus musculus [30]": {"test_system": "Mus musculus", "assay": "Prevention of myocardial hypoxia injury in isoproterenol-induced male C57 mouse myocardial injury model assessed as decrease in myocardial size at 8 mg/kg, ip once daily for 3 consecutive days (reference value: 6.47 mm)", "format": "functional", "settings": "time 3 day"}, "Mus musculus [31]": {"test_system": "Mus musculus", "assay": "Prevention of myocardial hypoxia injury in isoproterenol-induced male C57 mouse myocardial injury model assessed as decrease in heart weight ratio at 8 mg/kg, ip once daily for 3 consecutive days (reference value: 0.68%)", "format": "functional", "parameters": "scale not given: the % may be the effect or the level left", "settings": "time 3 day"}, "Mus musculus [32]": {"test_system": "Mus musculus", "assay": "Prevention of myocardial hypoxia injury in isoproterenol-induced male C57 mouse myocardial injury model assessed as increase in NO level in myocardial tissue at 8 to 16 mg/kg, IG once daily for 3 consecutive days", "format": "functional, organism-based", "settings": "dose 8-16 mg/kg, time 3.0 day"}, "Mus musculus [33]": {"test_system": "Mus musculus", "assay": "Prevention of myocardial hypoxia injury in isoproterenol-induced male C57 mouse myocardial injury model assessed as pathological myocardial change by measuring cellular arrangements at 8 to 16 mg/kg, IG once daily for 3 consecutive days by hematoxylin and eosin staining based analysis", "format": "functional, organism-based", "settings": "dose 8-16 mg/kg, time 3.0 day"}, "[34]": {"assay": "Toxicity in male C57 mouse assessed as mortality at 900 mg/kg, ip measured up to 14 days observation period", "format": "organism-based", "settings": "in vivo, 336 h, time < 14 day"}}, "note": "The source made the active and inactive calls. No cut-off for these calls is given here."}
{"smiles": "CN(N=O)c1ccc(OCc2ccc([N+](=O)[O-])c(F)c2)cc1", "values": [{"measurement": "Activity", "setting": "[1]", "result": "<5", "unit": "%"}, {"measurement": "Activity", "setting": "H9c2 [2]", "result": "Dose-dependent-effect"}, {"measurement": "Activity", "setting": "H9c2 [3]", "result": "Active; Partially Restores Cell Viability"}, {"measurement": "Activity", "setting": "H9c2 [4]", "result": 37.9, "unit": "nmol/mg"}, {"measurement": "Activity", "setting": "H9c2 [5]", "result": "Active; Reduced Red Fluorescence To Certain Extents"}, {"measurement": "Activity", "setting": "H9c2 [6]", "result": "Active; Green Fluorescence Intensity Wes Lower Than Ismn Treated Cells"}, {"measurement": "Activity", "setting": "H9c2 [7]", "result": "Active"}, {"measurement": "Activity", "setting": "H9c2 [8]", "result": "Active"}, {"measurement": "Activity", "setting": "H9c2 [9]", "result": "Active"}, {"measurement": "Activity", "setting": "H9c2 [10]", "result": "Active"}, {"measurement": "Activity", "setting": "Mus musculus [11]", "result": "Active"}, {"measurement": "Activity", "setting": "Mus musculus [12]", "result": "Active"}, {"measurement": "Activity", "setting": "Mus musculus [13]", "result": "Active"}, {"measurement": "Activity", "setting": "Mus musculus [14]", "result": "Active"}, {"measurement": "Activity", "setting": "Mus musculus [15]", "result": "Active"}, {"measurement": "Activity", "setting": "Mus musculus [16]", "result": "Active"}, {"measurement": "Activity", "setting": "Mus musculus [17]", "result": "Active"}, {"measurement": "Activity", "setting": "Mus musculus [18]", "result": "Active"}, {"measurement": "Activity", "setting": "Mus musculus [19]", "result": "Active"}, {"measurement": "Activity", "setting": "Mus musculus [20]", "result": "Active"}, {"measurement": "Activity", "setting": "Mus musculus [21]", "result": "Active"}, {"measurement": "Activity", "setting": "Mus musculus [22]", "result": "Active"}, {"measurement": "Activity", "setting": "Mus musculus [23]", "result": "Active"}, {"measurement": "half-life", "setting": "[24]", "result": 2.39, "unit": "h"}, {"measurement": "Tmax", "setting": "[25]", "result": 2.08, "unit": "h"}, {"measurement": "Cmax", "setting": "[26]", "result": 450, "unit": "ng/mL"}, {"measurement": "AUC", "setting": "[27]", "result": 640, "unit": "ng·h/mL"}, {"measurement": "Activity", "setting": "[28]", "result": "Non-toxic"}, {"measurement": "Activity", "setting": "[29]", "result": "Non-toxic"}, {"measurement": "Activity", "setting": "Mus musculus [30]", "result": 2.53, "unit": "mm"}, {"measurement": "Activity", "setting": "Mus musculus [31]", "result": 0.53, "unit": "%"}, {"measurement": "Activity", "setting": "Mus musculus [32]", "result": "Active"}, {"measurement": "Activity", "setting": "Mus musculus [33]", "result": "Active"}, {"measurement": "Activity", "setting": "[34]", "result": "Non-toxic"}]}
